Reference: patent publication US11267811B2, “Small molecule inhibitors of galectin-3” (BRISTOL-MYERS SQUIBB COMPANY, priority 2017, dated 2022)
pIC50: −log10 of the molar value. Read-outs that look alike come from different tables or passages of the source.

Target: His-tagged recombinant human Gal-3 (hGal-3) (Homo sapiens (Human), UniProt P17931)
Assay: Gal-3 HTRF assay (His-tagged hGal-3 binding to B-ASF);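 further: compounds preincubated 30 min with hGal-3, then 1 h with B-ASF, detection via terbium anti-His antibody and streptavidin d2. Control with B-ASF counts as full signal, omitting B-ASF as background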
[1] = HTRF, hGal-3 15 nM, B-ASF 15 nM, read-out: hGal-3 IC50

Sequence of His-tagged recombinant human Gal-3 (hGal-3) (P17931 whole entry): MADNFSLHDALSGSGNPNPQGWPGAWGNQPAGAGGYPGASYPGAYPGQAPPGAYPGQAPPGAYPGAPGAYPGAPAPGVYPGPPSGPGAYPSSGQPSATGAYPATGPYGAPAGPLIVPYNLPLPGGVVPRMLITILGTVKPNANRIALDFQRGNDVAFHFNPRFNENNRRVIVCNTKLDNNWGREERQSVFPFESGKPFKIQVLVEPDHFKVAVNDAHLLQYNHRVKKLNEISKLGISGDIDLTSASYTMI

Compound | pIC50 (read-out: hGal3 IC50) | pIC50 [1]
CO[C@@H]1[C@@H](n2cc(-c3cc(F)c(F)c(F)c3)nn2)[C@@H](O)[C@@H](CO)O[C@H]1c1nncn1-c1ccc(Cl)c(Cl)c1 [Ex 283] | 7.10 | –
Cn1nccc1[C@@H]1O[C@H](CO)[C@H](O)[C@H](n2cc(-c3cc(F)c(F)c(F)c3)nn2)[C@H]1O [Ex 286] | 5.00 | –
OC[C@H]1O[C@@H](c2oncc2-c2cccc(Cl)c2)[C@H](O)[C@@H](n2cc(-c3cc(F)c(F)c(F)c3)nn2)[C@H]1O [Ex 289] | 5.09 | –
OC[C@H]1O[C@@H](n2nncc2-c2ccccc2)[C@H](O)[C@@H](n2cc(-c3cc(F)c(F)c(F)c3)nn2)[C@H]1O [Example 3] | – | 6.21
OC[C@H]1O[C@@H](n2nncc2-c2ccc3c(c2)OCO3)[C@H](O)[C@@H](n2cc(-c3cc(F)c(F)c(F)c3)nn2)[C@H]1O [Example 4] | – | 6.41
OC[C@H]1O[C@@H](n2nncc2-c2ccc3[nH]ncc3c2)[C@H](O)[C@@H](n2cc(-c3cc(F)c(F)c(F)c3)nn2)[C@H]1O [Example 5] | – | 6.19
OC[C@H]1O[C@@H](n2nncc2-c2ccc3cn[nH]c3c2)[C@H](O)[C@@H](n2cc(-c3cc(F)c(F)c(F)c3)nn2)[C@H]1O [Example 6] | – | 6.31
OC[C@H]1O[C@@H](n2nncc2-c2ccc(Cl)cc2)[C@H](O)[C@@H](n2cc(-c3cc(F)c(F)c(F)c3)nn2)[C@H]1O [Example 7] | – | 6.48
Cc1nc2ccc(-c3cnnn3[C@@H]3O[C@H](CO)[C@H](O)[C@H](n4cc(-c5cc(F)c(F)c(F)c5)nn4)[C@H]3O)cc2s1 [Example 8] | – | 6.80
COc1cccc(-c2cnnn2[C@@H]2O[C@H](CO)[C@H](O)[C@H](n3cc(-c4cc(F)c(F)c(F)c4)nn3)[C@H]2O)c1 [Example 9] | – | 6.80
CC(C)(C)c1cnnn1[C@@H]1O[C@H](CO)[C@H](O)[C@H](n2cc(-c3cc(F)c(F)c(F)c3)nn2)[C@H]1O [Example 10] | – | 6.44
O=C(O)c1nnn([C@@H]2O[C@H](CO)[C@H](O)[C@H](n3cc(-c4cc(F)c(F)c(F)c4)nn3)[C@H]2O)c1-c1ccc(Cl)c(Cl)c1 [Example 11] | – | 6.74
CCO[C@@H]1[C@@H](n2cc(-c3cc(F)c(F)c(F)c3)nn2)[C@@H](O)[C@@H](CO)O[C@H]1n1nncc1-c1cccc(Cl)c1 [Example 12, (2R,3R,4S,5R,6R)-6-(5-(3-chlorophenyl)-1H-1,2,3-triazol-1-yl)-5-ethoxy-2-(hydroxymethyl)-4-(4-(3,4,5-trifluorophenyl)-1H-1,2,3-triazol-1-yl)tetrahydro-2H-pyran-3-ol] | – | 6.01
COCCO[C@@H]1[C@@H](n2cc(-c3cc(F)c(F)c(F)c3)nn2)[C@@H](O)[C@@H](CO)O[C@H]1n1nncc1-c1cccc(Cl)c1 [Example 13] | – | 6.24
O=C(O)CO[C@@H]1[C@@H](n2cc(-c3cc(F)c(F)c(F)c3)nn2)[C@@H](O)[C@@H](CO)O[C@H]1n1nncc1-c1cccc(Cl)c1 [Example 14] | – | 5.07
OC[C@H]1O[C@@H](n2nncc2-c2ccc(Cl)c(Cl)c2)C[C@@H](n2cc(-c3cc(F)c(F)c(F)c3)nn2)[C@H]1O [Example 15, (2R,3R,4R,6R)-6-(5-(3,4-dichlorophenyl)-1H-1,2,3-triazol-1-yl)-2-(hydroxymethyl)-4-(4-(3,4,5-trifluorophenyl)-1H-1,2,3-triazol-1-yl)tetrahydro-2H-pyran-3-ol] | – | 6.06

Compound | pIC50 (read-out: hGal3 IC50) | pIC50 [1]
COc1cccc(-c2cnnn2[C@H]2C[C@@H](n3cc(-c4cc(F)c(F)c(F)c4)nn3)[C@@H](O)[C@@H](CO)O2)c1 [Example 16] | – | 6.22
OC[C@H]1O[C@@H](n2nncc2-c2ccccc2)C[C@@H](n2cc(-c3cc(F)c(F)c(F)c3)nn2)[C@H]1O [Example 17] | – | 6.04
OC[C@H]1O[C@@H](n2nncc2-c2cccc(Cl)c2)[C@H](F)[C@@H](n2cc(-c3cc(F)c(F)c(F)c3)nn2)[C@H]1O [Example 18, (2R,3R,4S,5R,6R)-6-(5-(3-chlorophenyl)-1H-1,2,3-triazol-1-yl)-5-fluoro-2-(hydroxymethyl)-4-(4-(3,4,5-trifluorophenyl)-1H-1,2,3-triazol-1-yl)tetrahydro-2H-pyran-3-ol] | – | 5.98
OC[C@H]1O[C@@H](c2ncnn2-c2ccccc2)[C@H](O)[C@@H](n2cc(-c3cc(F)c(F)c(F)c3)nn2)[C@H]1O [Example 20] | – | 6.15
OC[C@H]1O[C@@H](c2ncnn2-c2ccc(Cl)c(Cl)c2)[C@H](O)[C@@H](n2cc(-c3cc(F)c(F)c(F)c3)nn2)[C@H]1O [Example 21] | – | 7.10
OC[C@H]1O[C@@H](c2ncnn2Cc2cccc(Cl)c2)[C@H](O)[C@@H](n2cc(-c3cc(F)c(F)c(F)c3)nn2)[C@H]1O [Example 22] | – | 5.95
COc1cccc(-n2ncnc2[C@@H]2O[C@H](CO)[C@H](O)[C@H](n3cc(-c4cc(F)c(F)c(F)c4)nn3)[C@H]2O)c1 [Example 23] | – | 6.82
OC[C@H]1O[C@@H](c2ncnn2-c2ccccc2Cl)[C@H](O)[C@@H](n2cc(-c3cc(F)c(F)c(F)c3)nn2)[C@H]1O [Example 24] | – | 6.32
OC[C@H]1O[C@@H](c2ncnn2-c2ccc(C(F)(F)F)cc2)[C@H](O)[C@@H](n2cc(-c3cc(F)c(F)c(F)c3)nn2)[C@H]1O [Example 25] | – | 6.25
Cc1cccc(-n2ncnc2[C@@H]2O[C@H](CO)[C@H](O)[C@H](n3cc(-c4cc(F)c(F)c(F)c4)nn3)[C@H]2O)c1 [Example 26] | – | 6.64
OC[C@H]1O[C@@H](c2ncnn2Cc2ccccc2)[C@H](O)[C@@H](n2cc(-c3cc(F)c(F)c(F)c3)nn2)[C@H]1O [Example 28] | – | 5.83
OC[C@H]1O[C@@H](c2ncnn2-c2c(F)cccc2F)[C@H](O)[C@@H](n2cc(-c3cc(F)c(F)c(F)c3)nn2)[C@H]1O [Example 29] | – | 5.81
O=C(O)c1cccc(-n2ncnc2[C@@H]2O[C@H](CO)[C@H](O)[C@H](n3cc(-c4cc(F)c(F)c(F)c4)nn3)[C@H]2O)c1 [Example 31] | – | 5.98
O=C(O)c1ccc(-n2ncnc2[C@@H]2O[C@H](CO)[C@H](O)[C@H](n3cc(-c4cc(F)c(F)c(F)c4)nn3)[C@H]2O)cc1 [Example 32] | – | 6.23
O=C(O)c1ccccc1-n1ncnc1[C@@H]1O[C@H](CO)[C@H](O)[C@H](n2cc(-c3cc(F)c(F)c(F)c3)nn2)[C@H]1O [Example 33] | – | 6.10

Results, then the compound that gave them:

pIC50 (read-out: hGal3 IC50) | pIC50 [1] | Compound
– | 6.15 | O=[N+]([O-])c1cccc(-n2ncnc2[C@@H]2O[C@H](CO)[C@H](O)[C@H](n3cc(-c4cc(F)c(F)c(F)c4)nn3)[C@H]2O)c1 [Example 35]
– | 6.66 | OC[C@H]1O[C@@H](c2ncnn2-c2cccc(C(F)(F)F)c2)[C@H](O)[C@@H](n2cc(-c3cc(F)c(F)c(F)c3)nn2)[C@H]1O [Example 36]
– | 6.68 | OC[C@H]1O[C@@H](c2ncnn2-c2cc(F)cc(F)c2)[C@H](O)[C@@H](n2cc(-c3cc(F)c(F)c(F)c3)nn2)[C@H]1O [Example 37]
– | 6.41 | OC[C@H]1O[C@@H](c2ncnn2-c2cccc(F)c2)[C@H](O)[C@@H](n2cc(-c3cc(F)c(F)c(F)c3)nn2)[C@H]1O [Example 38]
– | 6.26 | Cc1ccc(-n2ncnc2[C@@H]2O[C@H](CO)[C@H](O)[C@H](n3cc(-c4cc(F)c(F)c(F)c4)nn3)[C@H]2O)cc1 [Example 39]
– | 5.99 | OC[C@H]1O[C@@H](c2ncnn2-c2ccccc2F)[C@H](O)[C@@H](n2cc(-c3cc(F)c(F)c(F)c3)nn2)[C@H]1O [Example 40]
– | 6.96 | OC[C@H]1O[C@@H](c2ncnn2-c2cc(Cl)cc(Cl)c2)[C@H](O)[C@@H](n2cc(-c3cc(F)c(F)c(F)c3)nn2)[C@H]1O [Example 41]
– | 6.34 | OC[C@H]1O[C@@H](c2ncnn2-c2ccncc2)[C@H](O)[C@@H](n2cc(-c3cc(F)c(F)c(F)c3)nn2)[C@H]1O [Example 42]
– | 6.21 | OC[C@H]1O[C@@H](c2ncnn2-c2ccc(Cl)cc2)[C@H](O)[C@@H](n2cc(-c3cc(F)c(F)c(F)c3)nn2)[C@H]1O [Example 43]
– | 5.35 | Cn1ncnc1[C@@H]1O[C@H](CO)[C@H](O)[C@H](n2cc(-c3cc(F)c(F)c(F)c3)nn2)[C@H]1O [Example 44]
– | 7.22 | Cc1nc2ccc(-n3ncnc3[C@@H]3O[C@H](CO)[C@H](O)[C@H](n4cc(-c5cc(F)c(F)c(F)c5)nn4)[C@H]3O)cc2s1 [Example 45]
– | 7.40 | OC[C@H]1O[C@@H](c2ncnn2-c2ccc3ncsc3c2)[C@H](O)[C@@H](n2cc(-c3cc(F)c(F)c(F)c3)nn2)[C@H]1O [Example 46]
– | 7.10 | OC[C@H]1O[C@@H](c2ncnn2-c2cc(Cl)ccc2Cl)[C@H](O)[C@@H](n2cc(-c3cc(F)c(F)c(F)c3)nn2)[C@H]1O [Example 47]
– | 6.96 | Cn1cnc2ccc(-n3ncnc3[C@@H]3O[C@H](CO)[C@H](O)[C@H](n4cc(-c5cc(F)c(F)c(F)c5)nn4)[C@H]3O)cc21 [Example 48]
– | 7.30 | Cc1nc2cc(C)c(-n3ncnc3[C@@H]3O[C@H](CO)[C@H](O)[C@H](n4cc(-c5cc(F)c(F)c(F)c5)nn4)[C@H]3O)cc2s1 [Example 49]
– | 6.92 | OC[C@H]1O[C@@H](c2ncnn2-c2ccc3nc(N4CCOCC4)sc3c2)[C@H](O)[C@@H](n2cc(-c3cc(F)c(F)c(F)c3)nn2)[C@H]1O [Example 50]
– | 7.15 | Cc1nc2cc(Cl)c(-n3ncnc3[C@@H]3O[C@H](CO)[C@H](O)[C@H](n4cc(-c5cc(F)c(F)c(F)c5)nn4)[C@H]3O)cc2s1 [Example 51]
– | 6.52 | Cc1ncc(-c2cccc(-n3ncnc3[C@@H]3O[C@H](CO)[C@H](O)[C@H](n4cc(-c5cc(F)c(F)c(F)c5)nn4)[C@H]3O)c2)s1 [Example 52]
– | 7.64 | O=C(O)CO[C@@H]1[C@@H](n2cc(-c3cc(F)c(F)c(F)c3)nn2)[C@@H](O)[C@@H](CO)O[C@H]1c1ncnn1-c1cccc(Cl)c1 [Example 53, 2-(((2S,3R,4S,5R,6R)-2-(1-(3-chlorophenyl)-1H-1,2,4-triazol-5-yl)-5-hydroxy-6-(hydroxymethyl)-4-(4-(3,4,5-trifluorophenyl)-1H-1,2,3-triazol-1-yl)tetrahydro-2H-pyran-3-yl)oxy)acetic acid]
– | 7.08 | CO[C@@H]1[C@@H](n2cc(-c3cc(F)c(F)c(F)c3)nn2)[C@@H](O)[C@@H](CO)O[C@H]1c1ncnn1-c1cccc(Cl)c1 [Example 54]
– | 6.80 | CCO[C@@H]1[C@@H](n2cc(-c3cc(F)c(F)c(F)c3)nn2)[C@@H](O)[C@@H](CO)O[C@H]1c1ncnn1-c1cccc(Cl)c1 [Example 55]
